A short description of data set [1]: Metabolic stability in human liver microsomes assessed as intrinsic clearance at […] measured upto 60 mins in presence of NADPH by HPLC-MS analysis. The class given is ADME, Microsome. Set-up: dose or concentration left out as unconfirmed. As to conditions: 1 h. On the technique in general: Liver microsomes are a subcellular fraction often used to study metabolism.

Data set [2] deals with Voltage-gated inwardly rectifying potassium channel KCNH2 (Homo sapiens, UniProt Q12809). Kind of data set: Inhibition of hERG. It is filed as toxicity. For orientation: hERG is a cardiac potassium channel; its block is linked to QT prolongation.
The nature of data set [3]: Mutagenicity in Salmonella typhimurium by Ames test. It is filed as toxicity. The following applies: salmonella enterica subsp. enterica serovar typhimurium. Background: The Ames test uses bacterial strains that need an amino acid and regain growth without it when mutated back.
Data set [4] is described as follows: MRT (0 to infinity) in 12 hr starved C57 mouse at 5 mg/kg, iv measured for 0.083 to 24 hrs post-dose by LC-MS-MS analysis. It is filed as ADME, organism-based. The following applies: in vivo, time 0.083-24 hrs.
The nature of data set [5]: AUC (0 to infinity) in 12 hr starved C57 mouse at 30 mg/kg, po measured for 0.083 to 24 hrs post-dose by LC-MS-MS analysis. It is filed as ADME, organism-based. More on the design: time upper 24 hrs, dose 30 mg/kg, time lower 0.083 hrs, route po. As to conditions: in vivo.
Data set [6] deals with Mus musculus. Kind of data set: Antiinflammatory activity against DSS-induced C57BL/6 mouse model of acute ulcerative colitis assessed as inhibition ratio of TNF-alpha protein expression at 1 mg/kg, IG via gavage measured after 7 days by ELISA relative to control. The class given is functional. The following applies: time 7 day. More on the design: scale not given: the % may be the effect or the level left.

Data set [7] deals with Mus musculus. Kind of data set: Antiinflammatory activity against DSS-induced C57BL/6 mouse model of acute ulcerative colitis assessed as inhibition ratio of TNF-alpha protein expression at 3 mg/kg, IG via gavage measured after 7 days by ELISA relative to control. As to conditions: time 7 day. More on the design: scale not given: the % may be the effect or the level left. The class given is functional.

Data set [8] concerns Mus musculus. Kind of data set: Antiinflammatory activity against DSS-induced C57BL/6 mouse model of acute ulcerative colitis assessed as inhibition ratio of IL-1beta protein expression at 10 mg/kg, IG via gavage measured after 7 days by ELISA relative to control. The class given is functional. More on the design: scale not given: the % may be the effect or the level left. As to conditions: time 7 day.

Data set [9] relates to Mus musculus. The experiment in a line: Antiinflammatory activity against DSS-induced C57BL/6 mouse model of acute ulcerative colitis assessed as inhibition ratio of IL-1beta mRNA expression in colon tissue at 10 mg/kg, IG via gavage measured after 7 days by RT-qPCR analysis relative to control. The class given is functional. More on the design: scale not given: the % may be the effect or the level left. The following applies: time 7 day.

Data set [10] relates to Mus musculus. Kind of data set: Antiinflammatory activity against DSS-induced C57BL/6 mouse model of acute ulcerative colitis assessed as inhibition ratio of IL-23 mRNA expression in colon tissue at 10 mg/kg, IG via gavage measured after 7 days by RT-qPCR analysis relative to control. The following applies: time 7 day. It is filed as functional. More on the design: scale not given: the % may be the effect or the level left.

Data set [11] concerns Mus musculus. The experiment in a line: Anti-ulcerative colitis activity in IL-10-/- C57BL/6 mouse model of ulcerative colitis assessed as body weight recovery ratio at 1 mg/kg, IG via gavage for 8 weeks and measured everyday relative to control. The class given is functional.
The test system of data set [12] is Mus musculus. The experiment in a line: Antiinflammatory activity against IL-10-/- C57BL/6 mouse model of ulcerative colitis assessed as inhibition ratio of IL-1beta protein expression at 1 mg/kg, IG via gavage and measured after 8 weeks by ELISA relative to control. It is filed as functional. More on the design: scale not given: the % may be the effect or the level left.

Data set [13] deals with Mus musculus. The experiment in a line: Antiinflammatory activity against IL-10-/- C57BL/6 mouse model of ulcerative colitis assessed as inhibition ratio of IL-1beta protein expression at 10 mg/kg, IG via gavage and measured after 8 weeks by ELISA relative to control. It is filed as functional. More on the design: scale not given: the % may be the effect or the level left.

Data set [14] deals with Mus musculus. Kind of data set: Antiinflammatory activity against IL-10-/- C57BL/6 mouse model of ulcerative colitis assessed as inhibition ratio of IL-1beta mRNA expression in colon tissue at 10 mg/kg, IG via gavage and measured after 8 weeks by RT-qPCR analysis relative to control. The class given is functional. More on the design: scale not given: the % may be the effect or the level left.

Data set [15] concerns Mus musculus. The experiment in a line: Antiinflammatory activity against IL-10-/- C57BL/6 mouse model of ulcerative colitis assessed as inhibition ratio of IL-23 mRNA expression in colon tissue at 1 mg/kg, IG via gavage and measured after 8 weeks by RT-qPCR analysis relative to control. The class given is functional. Set-up: scale not given: the % may be the effect or the level left.

Data set [16] deals with Mus musculus. Kind of data set: Antiinflammatory activity against IL-10-/- C57BL/6 mouse model of ulcerative colitis assessed as inhibition ratio of IL-23 mRNA expression in colon tissue at 3 mg/kg, IG via gavage and measured after 8 weeks by RT-qPCR analysis relative to control. The class given is functional. Set-up: scale not given: the % may be the effect or the level left.

Data set [17] deals with RAW264.7. Kind of data set: Inhibition of MKK3-p38-elF4E signaling pathway in mouse RAW264.7 cells assessed as reduction in LPS-induced elF4E phosphorylation treated for 1.5 hrs followed by LPS treatment for 1 hr by Western blot analysis. The class given is cell-based. The following applies: dose 3.125-12.5 µmol/L, time 2.5 hrs, DDE = dose-dependent effect.
The nature of data set [18]: Toxicity in C57 mouse assessed as liver damage at 50 to 500 mg/kg, po administered daily for 14 days. The class given is organism-based. The following applies: in vivo, 336 h, dose 50-500 mg/kg, time 14 day.
A short description of data set [19]: Toxicity in C57 mouse assessed as maximum tolerated dose administered orally daily for 14 days. As to conditions: in vivo, route po, time 14 day.
The test system of data set [20] is Mus musculus. Kind of data set: Anti-ulcerative colitis activity against DSS-induced ulcerative colitis C57BL/6 mouse model assessed as reduction in DAI score at 1 mg/kg, IG via gavage administered for 7 days and measured everyday (reference value: 4.0). The class given is functional. As to conditions: time 7 day.
In data set [21] the test system is Mus musculus. Kind of data set: Anti-ulcerative colitis activity against DSS-induced ulcerative colitis C57BL/6 mouse model assessed as reduction in DAI score at 10 mg/kg, IG via gavage administered for 7 days and measured everyday (reference value: 4.0). The class given is functional. The following applies: time 7 day.
Data set [22] deals with Mus musculus. Kind of data set: Anti-ulcerative colitis activity against DSS-induced ulcerative colitis C57BL/6 mouse model assessed as reduction in DAI recovery score ratio at 1 mg/kg, IG via gavage administered for 7 days and measured everyday relative to control. It is filed as functional. The following applies: time 7 day. More on the design: scale not given: the % may be the effect or the level left.

Data set [23] addresses T1, Dual specificity mitogen-activated protein kinase kinase 3 (Homo sapiens) (UniProt P46734).
T1 sequence (whole entry): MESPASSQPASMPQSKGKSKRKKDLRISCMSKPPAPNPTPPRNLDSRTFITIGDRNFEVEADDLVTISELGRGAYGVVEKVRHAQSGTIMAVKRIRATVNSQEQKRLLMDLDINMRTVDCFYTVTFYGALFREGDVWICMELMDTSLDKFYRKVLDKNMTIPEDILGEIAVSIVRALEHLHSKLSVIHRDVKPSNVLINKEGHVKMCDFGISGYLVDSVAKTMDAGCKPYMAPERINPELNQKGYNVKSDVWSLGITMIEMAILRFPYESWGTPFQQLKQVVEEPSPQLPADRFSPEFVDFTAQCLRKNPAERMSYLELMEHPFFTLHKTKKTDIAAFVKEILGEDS
The experiment in a line: Binding affinity to CM5 chip immobilized human MKK3 (20 to 347 residues) expressed in Escherichia coli BL21 (DE3) assessed as association constant, Ka by surface plasmon resonance analysis.

Data set [24] deals with T2, Dual specificity mitogen-activated protein kinase kinase 3 (Homo sapiens, UniProt P46734).
T2 sequence (P46734 whole entry): T1 sequence (whole entry)
Kind of data set: Binding affinity to CM5 chip immobilized human MKK3 (20 to 347 residues) expressed in Escherichia coli BL21 (DE3) assessed as dissociation constant, Kd by surface plasmon resonance analysis.

Sequence of Voltage-gated inwardly rectifying potassium channel KCNH2 (Q12809 whole entry): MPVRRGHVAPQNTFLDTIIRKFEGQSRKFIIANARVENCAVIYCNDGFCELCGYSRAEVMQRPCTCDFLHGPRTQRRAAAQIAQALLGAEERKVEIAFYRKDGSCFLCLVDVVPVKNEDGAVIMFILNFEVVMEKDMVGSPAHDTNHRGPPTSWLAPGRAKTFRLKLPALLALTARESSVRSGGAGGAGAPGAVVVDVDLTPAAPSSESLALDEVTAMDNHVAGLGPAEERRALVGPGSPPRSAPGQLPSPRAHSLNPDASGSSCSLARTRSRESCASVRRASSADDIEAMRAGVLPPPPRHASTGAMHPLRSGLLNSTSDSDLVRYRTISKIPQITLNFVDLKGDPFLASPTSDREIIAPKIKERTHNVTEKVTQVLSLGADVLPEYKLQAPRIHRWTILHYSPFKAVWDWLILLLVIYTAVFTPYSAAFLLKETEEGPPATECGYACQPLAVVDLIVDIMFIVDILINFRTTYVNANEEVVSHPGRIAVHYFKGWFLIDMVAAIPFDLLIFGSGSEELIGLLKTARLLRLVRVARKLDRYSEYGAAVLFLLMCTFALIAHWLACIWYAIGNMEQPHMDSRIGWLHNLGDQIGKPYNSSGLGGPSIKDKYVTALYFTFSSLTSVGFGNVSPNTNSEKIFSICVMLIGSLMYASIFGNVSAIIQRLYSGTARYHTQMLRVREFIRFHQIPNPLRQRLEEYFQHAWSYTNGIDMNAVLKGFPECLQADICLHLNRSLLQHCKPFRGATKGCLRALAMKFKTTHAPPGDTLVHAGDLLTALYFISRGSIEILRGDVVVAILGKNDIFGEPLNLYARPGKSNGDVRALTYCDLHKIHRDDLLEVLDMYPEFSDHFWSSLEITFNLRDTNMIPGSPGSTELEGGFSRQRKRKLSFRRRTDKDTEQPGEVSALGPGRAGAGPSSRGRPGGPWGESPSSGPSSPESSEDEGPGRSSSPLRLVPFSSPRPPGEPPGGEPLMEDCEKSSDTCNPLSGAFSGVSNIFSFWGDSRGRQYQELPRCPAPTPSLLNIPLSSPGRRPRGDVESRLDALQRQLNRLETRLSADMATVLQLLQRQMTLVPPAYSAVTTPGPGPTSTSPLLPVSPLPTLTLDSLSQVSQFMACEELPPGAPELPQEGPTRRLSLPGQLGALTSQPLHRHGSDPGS

The term IC50 denotes the midpoint of a concentration-inhibition curve. As a reminder, the MRT inf is the average time that molecules of a dose stay in the body. For orientation: AUC means concentration integrated over time. A word on the MTD: it is the largest dose that counted as tolerated. Regarding `COc1ccc([C@H]2CC(=O)c3cc(OC)cc(OC)c32)cc1`, in data set [1], the CLH was determined as 46 mL/min/g. This molecule also gave an IC50 in [2] of more than 30 µM. Also, the Activity entry in [3] is listed as “Non-Toxic”; in data set [6] it was 32.9%; in data set [7], 55.9%; in [8] it was 64.4%; in data set [9], 95.6%; in data set [10] it was 90.5%. Besides, the Activity in data set [11] is reported as 13.6%; in data set [12] it was 40.1%; in data set [13], 51.8%; in data set [14], 43.8%; in [15] it was 31%; in [16], 51.7%. Further, the Activity entry is given as “Non-Toxic” in [18], 3.2 in data set [20], 2.2 in data set [21] and 20% in [22]. Moreover, the mean residence time MRT inf in data set [4] came out at 7.32 h. The AUC in [5] was determined as 16991 ng·h/mL. For the same molecule, the inhibition entry in data set [17] is “Dde”. The MTD at 336 h in data set [19] is 500 mg/kg. For the same molecule, the Ka in [23] is 5.08 10^4/Ms. In data set [24], the Kd was 3.61 10^-3/s.

For the origin of these results see ChEMBL document CHEMBL5154881, “Discovery of First-in-Class TAK1-MKK3 Protein-Protein Interaction (PPI) Inhibitor (R)-STU104 for the Treatment of Ulcerative Colitis through Modulating TNF-α Production” (J Med Chem, 2022).
